According to ChEMBL document CHEMBL6177930, “2-(4-Bromobenzyl) tethered 4-amino aryl/alkyl-5,6,7,8-tetrahydrobenzo[4,5]thieno[2,3-d]pyrimidines: design, synthesis, anticancer assessment via dual topoisomerase-I/II inhibition, and in silico studies” (RSC Med Chem, 2025):
The source made the active and inactive calls. No cut-off for these calls is given here.

Legend:
Mitochondrial membrane = test: Induction of mitochondrial membrane potential loss in human FaDu cells assessed as decrease in green fluorescence incubated for 48 hrs by Rhodamine 123 staining based fluorescence microscopy analysis; type: cell membranes; conditions: dose 1-5 µM
FaDu [1] = test: Induction of autophagy in human FaDu cells assessed as reduction in cell density at 1 to 5 uM measured after 48 hrs by acridine orange staining based fluorescence microscopy analysis; type: functional; conditions: dose 1-5 µM
FaDu [2] = test: Induction of autophagy in human FaDu cells assessed as increase in acidic vesicular organelles measured after 48 hrs by acridine orange staining based fluorescence microscopy analysis; type: functional, cell-based; conditions: dose 1-5 µM
FaDu [3] = test: Induction of apoptosis in human FaDu cells assessed as appearance of deformed cell membrane at 1 to 5 uM by DAPI staining based analysis; type: functional; conditions: dose 1-5 µM
MCF7 = test: Antiproliferative activity against human MCF7 cells assessed as inhibition of cell growth at 10 uM measured after 48 to 72 hrs by MTT assay relative to control; type: functional; conditions: time 48-72 hrs
T47D = test: Antiproliferative activity against human T47D cells assessed as inhibition of cell growth at 10 uM measured after 48 to 72 hrs by MTT assay relative to control; type: functional; conditions: time 48-72 hrs
HEK293 = test: Antiproliferative activity against HEK293 cells assessed as inhibition of cell growth at 10 to 25 uM measured after 48 to 72 hrs by MTT assay; type: toxicity, cell-based; conditions: human, hek293, 25 µM; dose lower 10 µM, time lower 48 hrs, dose upper 25 µM, time upper 72 hrs
FaDu [4] = test: Antiproliferative activity against human FaDu cells assessed as inhibition of cell growth measured after 48 hrs by MTT assay; type: functional, cell-based
FaDu [5] = test: Induction of morphological changes in human FaDu cells assessed as appearance of rounded cells at 1 uM incubated for 48 hrs by bright field microscope based analysis; type: functional, cell-based
FaDu [6] = test: Induction of morphological changes in human FaDu cells assessed as reduction in cell density at 2 to 5 uM incubated for 48 hrs by bright field microscope based analysis; type: functional; conditions: dose 2-5 µM
FaDu [7] = test: Induction of morphological changes in human FaDu cells assessed as appearance of rounded cells at 2 to 5 uM incubated for 48 hrs by bright field microscope based analysis; type: functional, cell-based; conditions: dose 2-5 µM
FaDu [8] = test: Induction of apoptosis in human FaDu cells assessed as chromatin condensation at 1 to 5 uM by DAPI staining based analysis; type: functional, cell-based; conditions: dose 1-5 µM
FaDu [9] = test: Induction of apoptosis in human FaDu cells assessed as nuclear fragmentation at 1 to 5 uM by DAPI staining based analysis; type: functional, cell-based; conditions: dose 1-5 µM
FaDu [10] = test: Inhibition of cell migration in human FaDu cells assessed as reduction in wound closure at 5 uM measured after 48 hrs by bright field microscopic analysis; type: functional, cell-based
FaDu [11] = test: Inhibition of cell migration in human FaDu cells assessed as reduction in wound closure at 1 to 2 uM measured after 48 hrs by bright field microscopic analysis; type: functional, cell-based; conditions: dose 1-2 µM
FaDu [12] = test: Inhibition of cell migration in human FaDu cells assessed as reduction in wound closure at 1 uM measured after 48 hrs by bright field microscopic analysis relative to control; type: functional
FaDu [13] = test: Inhibition of colony formation in human FaDu cells assessed as reduction in colony formation incubated for 48 hrs crystal violet staining based analysis; type: functional, cell-based; conditions: dose 1-5 µM
FaDu [14] = test: Upregulation of LC3A/B level in human FaDu cells measured after 48 hrs by Western blot analysis; type: functional, cell-based; conditions: dose 1-5 µM
FaDu [15] = test: Upregulation of cleaved caspase-3 level in human FaDu cells measured after 48 hrs by Western blot analysis; type: functional, cell-based; conditions: dose 1-5 µM
[16] = biological target: T1, DNA topoisomerase 1 (Homo sapiens) (UniProt P11387); test: Inhibition of human topoisomerase-I extracted from baculovirus expression system using SC-DNA as substrate incubated for 30 mins by EtBr staining based agarose gel electrophoresis method
T1 sequence (whole entry): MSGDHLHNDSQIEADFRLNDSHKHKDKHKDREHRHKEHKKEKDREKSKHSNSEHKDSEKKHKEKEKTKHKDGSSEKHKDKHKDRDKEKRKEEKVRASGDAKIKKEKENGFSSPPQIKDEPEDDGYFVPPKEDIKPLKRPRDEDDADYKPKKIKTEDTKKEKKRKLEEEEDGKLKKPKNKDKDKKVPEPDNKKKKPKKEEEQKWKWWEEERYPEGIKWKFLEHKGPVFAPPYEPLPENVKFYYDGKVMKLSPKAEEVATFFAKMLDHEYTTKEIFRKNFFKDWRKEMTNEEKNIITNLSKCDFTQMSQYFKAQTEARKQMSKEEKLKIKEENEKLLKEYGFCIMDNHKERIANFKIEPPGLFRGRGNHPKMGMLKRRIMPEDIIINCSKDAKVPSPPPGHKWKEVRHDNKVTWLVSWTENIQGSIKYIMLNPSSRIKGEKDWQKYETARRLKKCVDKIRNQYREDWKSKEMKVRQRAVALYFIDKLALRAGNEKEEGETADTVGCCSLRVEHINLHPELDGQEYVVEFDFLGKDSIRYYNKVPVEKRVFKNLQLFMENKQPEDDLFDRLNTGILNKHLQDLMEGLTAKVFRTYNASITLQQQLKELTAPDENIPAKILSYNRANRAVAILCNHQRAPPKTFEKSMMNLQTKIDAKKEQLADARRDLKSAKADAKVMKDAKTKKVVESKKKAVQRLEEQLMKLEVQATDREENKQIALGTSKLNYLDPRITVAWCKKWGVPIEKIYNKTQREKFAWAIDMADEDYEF

[17] = biological target: DNA topoisomerase 2-alpha (Homo sapiens) (UniProt P11388); test: Inhibition of human topoisomerase-II alpha assessed as reduction in decatenation activity using kinetoplast DNA as substrate incubated for 30 mins by EtBr staining based agarose gel electrophoresis method
Sequence of DNA topoisomerase 2-alpha (Homo sapiens) (P11388 whole entry): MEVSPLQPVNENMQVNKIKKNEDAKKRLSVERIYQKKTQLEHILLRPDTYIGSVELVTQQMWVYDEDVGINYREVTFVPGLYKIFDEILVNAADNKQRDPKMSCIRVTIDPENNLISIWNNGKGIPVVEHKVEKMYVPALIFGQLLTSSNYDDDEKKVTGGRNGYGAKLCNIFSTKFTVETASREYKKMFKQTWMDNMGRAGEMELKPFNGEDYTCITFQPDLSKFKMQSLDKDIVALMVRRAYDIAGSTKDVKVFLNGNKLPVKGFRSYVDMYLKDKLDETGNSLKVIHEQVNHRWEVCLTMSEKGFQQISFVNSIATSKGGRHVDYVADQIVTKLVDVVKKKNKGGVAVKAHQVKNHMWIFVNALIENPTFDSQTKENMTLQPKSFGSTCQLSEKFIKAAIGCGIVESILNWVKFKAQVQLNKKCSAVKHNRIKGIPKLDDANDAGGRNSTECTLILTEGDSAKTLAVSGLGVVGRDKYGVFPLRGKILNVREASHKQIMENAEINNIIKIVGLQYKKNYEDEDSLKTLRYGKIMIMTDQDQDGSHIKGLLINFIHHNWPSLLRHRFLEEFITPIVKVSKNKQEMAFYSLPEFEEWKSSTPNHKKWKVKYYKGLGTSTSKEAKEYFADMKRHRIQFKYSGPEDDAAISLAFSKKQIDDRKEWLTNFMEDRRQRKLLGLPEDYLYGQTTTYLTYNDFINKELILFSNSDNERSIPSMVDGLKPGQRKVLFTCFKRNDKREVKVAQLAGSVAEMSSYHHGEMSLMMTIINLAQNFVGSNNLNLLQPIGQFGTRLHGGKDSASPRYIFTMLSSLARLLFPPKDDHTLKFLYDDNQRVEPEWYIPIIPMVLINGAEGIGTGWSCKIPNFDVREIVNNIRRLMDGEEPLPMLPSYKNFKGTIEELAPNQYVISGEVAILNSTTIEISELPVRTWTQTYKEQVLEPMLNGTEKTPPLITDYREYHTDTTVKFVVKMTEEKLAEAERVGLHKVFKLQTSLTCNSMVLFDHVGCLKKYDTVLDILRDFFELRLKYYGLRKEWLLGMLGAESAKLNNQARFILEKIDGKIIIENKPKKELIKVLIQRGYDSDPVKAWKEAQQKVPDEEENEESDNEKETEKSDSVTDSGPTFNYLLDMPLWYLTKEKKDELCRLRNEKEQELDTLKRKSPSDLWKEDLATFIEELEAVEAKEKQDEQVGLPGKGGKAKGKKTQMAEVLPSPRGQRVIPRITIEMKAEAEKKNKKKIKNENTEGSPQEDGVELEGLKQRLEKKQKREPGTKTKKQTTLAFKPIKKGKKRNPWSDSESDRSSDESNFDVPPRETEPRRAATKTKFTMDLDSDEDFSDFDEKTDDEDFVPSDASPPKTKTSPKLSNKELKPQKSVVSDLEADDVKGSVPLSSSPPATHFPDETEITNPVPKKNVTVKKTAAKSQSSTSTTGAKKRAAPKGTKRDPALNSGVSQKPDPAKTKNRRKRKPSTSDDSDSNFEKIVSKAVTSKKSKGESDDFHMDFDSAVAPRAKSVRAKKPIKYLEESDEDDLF

[18] = biological target: T2, Prostaglandin G/H synthase 2 (Homo sapiens) (UniProt P35354); test: Inhibition of human recombinant COX-2 at 10 uM relative to control
T2 sequence (whole entry): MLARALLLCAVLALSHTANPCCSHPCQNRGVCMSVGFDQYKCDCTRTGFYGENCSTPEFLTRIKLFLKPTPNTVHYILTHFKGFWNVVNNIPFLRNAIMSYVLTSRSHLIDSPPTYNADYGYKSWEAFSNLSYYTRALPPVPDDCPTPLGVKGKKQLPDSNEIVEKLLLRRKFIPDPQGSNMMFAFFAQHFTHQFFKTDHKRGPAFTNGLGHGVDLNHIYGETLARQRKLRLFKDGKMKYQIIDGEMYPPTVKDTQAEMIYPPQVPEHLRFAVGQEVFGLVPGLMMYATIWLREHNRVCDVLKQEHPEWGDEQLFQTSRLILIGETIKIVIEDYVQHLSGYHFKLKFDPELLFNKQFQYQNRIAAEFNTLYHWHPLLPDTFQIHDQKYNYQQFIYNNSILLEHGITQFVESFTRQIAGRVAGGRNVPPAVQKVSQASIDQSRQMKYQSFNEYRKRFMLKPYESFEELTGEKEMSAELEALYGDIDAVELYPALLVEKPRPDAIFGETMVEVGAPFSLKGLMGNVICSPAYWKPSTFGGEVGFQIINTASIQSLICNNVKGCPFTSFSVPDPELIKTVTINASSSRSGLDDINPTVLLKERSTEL

- Activity (Mitochondrial membrane): Dose-dependent-effect
- inhibition [18]: 75.7%
SMILES: Brc1ccc(Cc2nc(N3CCN(c4ccncc4)CC3)c3c4c(sc3n2)CCCC4)cc1
- Activity (FaDu [1]): Active
- Activity (FaDu [2]): Dose-dependent-effect
- Activity (FaDu [3]): Active
- inhibition at 10 µM (MCF7): 15.1%
- inhibition at 10 µM (T47D): 83.4%
- Activity (HEK293): Non-toxic
- IC50 (FaDu [4]): 3.06 µM
- Activity (FaDu [4]; dose 0.5-50 µM): Dose-dependent-effect
- Activity (FaDu [5]): Active
- Activity (FaDu [6]): Active
- Activity (FaDu [7]): Active
- Activity (FaDu [8]): Active
- Activity (FaDu [9]): Active
- inhibition (FaDu [10]): Active
- inhibition (FaDu [11]): Active
- inhibition at 1 µM (FaDu [12]): 64.7%
- inhibition (FaDu [13]): Dose-dependent-effect
- Activity (FaDu [14]): Dose-dependent-effect
- Activity (FaDu [15]): Dose-dependent-effect
- inhibition [16]: Active; Compound Showed Potent Inhibition Activity Than Camptothecin
- inhibition [17]: Active; Compound Showed Higher Inhibition Activity Than Etoposide
